Values after ≈ are worked out from the molar mass of the structure shown.
Experiments:
[1] = target: T1, Enoyl-[acyl-carrier-protein] reductase [NADH] (Francisella tularensis subsp. tularensis (strain SCHU S4 / Schu 4), UniProt Q5NGQ3)
T1 sequence (Q5NGQ3 whole entry): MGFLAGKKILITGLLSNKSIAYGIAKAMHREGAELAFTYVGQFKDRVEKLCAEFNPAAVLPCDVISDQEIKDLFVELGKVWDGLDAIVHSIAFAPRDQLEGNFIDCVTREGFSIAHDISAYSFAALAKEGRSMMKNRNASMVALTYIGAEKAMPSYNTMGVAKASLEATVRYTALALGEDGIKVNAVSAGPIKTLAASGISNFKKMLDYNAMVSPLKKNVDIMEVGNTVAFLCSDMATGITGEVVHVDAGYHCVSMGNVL

[2] = system: Francisella tularensis subsp. tularensis SCHU S4; assay: Antibacterial activity against Francisella tularensis SCHU S4 expressing FabI assessed as growth inhibition after 42 to 48 hrs by microdilution method; format: functional
[3] = target: T1, Enoyl-[acyl-carrier-protein] reductase [NADH]; remark: listed apart in the source
Pseudomonas aeruginosa = assay: Antibacterial activity against Pseudomonas aeruginosa ATCC 27853 expressing FabI, FabV, FabK assessed as growth inhibition after 18 to 24 hrs by microdilution method; format: functional
Staphylococcus aureus = assay: Antibacterial activity against Staphylococcus aureus ATCC 29213 expressing FabI assessed as growth inhibition after 18 to 24 hrs by microdilution method; format: functional
Escherichia coli = assay: Antibacterial activity against Escherichia coli ATCC 25922 expressing FabI assessed as growth inhibition after 18 to 24 hrs by microdilution method; format: functional
[4] = Cytotoxicity against human 786-O cells assessed as cell survival after 72 hrs by CellTiter-96 aqueous one solution assay; format: cell-based, 786-0; conditions: read-out: LC50
[5] = target: T1, Enoyl-[acyl-carrier-protein] reductase [NADH]; remark: listed apart in the source
Bacillus anthracis = assay: Antibacterial activity against Bacillus anthracis Ames expressing FabI assessed as growth inhibition after 18 to 24 hrs by microdilution method; format: functional
[6] = Cytotoxicity against mouse Neuro2a cells assessed as cell survival after 72 hrs by CellTiter-96 aqueous one solution assay; format: cell-based, N2a; conditions: read-out: LC50
[7] = Solubility of the compound in DMSO at 125 uM; format: physicochemical

Structure (SMILES) | IC50 [1] [µM] | MIC [2] | IC50 [3] [µM] | MIC (Pseudomonas aeruginosa) [µg/mL] | MIC (Staphylococcus aureus) [µg/mL] | MIC (Escherichia coli) [µg/mL] | CC50 at 72 h [4] [µM] | MIC (Bacillus anthracis) [µg/mL] | CC50 at 72 h [6] [µM] | further results
CN(Cc1ccc(C(C)(C)C)cc1)Cc1cccc2ccccc12 [BUTENAFINE] | 76 | – | – | – | – | – | – | – | – | –
CCc1ccc(CCOc2ccc(CC3SC(=O)NC3=O)cc2)nc1 (stereo not drawn) [PIOGLITAZONE] | 79 | – | – | – | – | – | – | – | – | –
O=C(CC1CCCCC1)N1CCC(c2nc(-c3ccc(S(=O)(=O)N4CCCC4)cc3)no2)CC1 | – | > 52 µg/mL | 8 | > 52 | > 52 | > 52 | 7 | > 26 | 8 | Ki [5]: 7 µM
Nc1ccn([C@@H]2O[C@H](CO)[C@@H](O)[C@@H]2O)c(=O)n1 [CYTARABINE] | 59 | – | – | – | – | – | – | – | – | –
O=c1oc2ccccc2c(O)c1Cc1c(O)c2ccccc2oc1=O [DICUMAROL] | 47 | – | – | – | – | – | – | – | – | –
CN(Cc1ccccc1N)C(=O)c1cc2ccccc2o1 | 45 | – | – | – | – | – | – | – | – | –
O=C(COc1ccccc1)NCCSc1c[nH]c2ccccc12 | – | 67 µM | 20 | > 343 | 86 (≈ 263 µM) | > 343 | 30 | 43 (≈ 132 µM) | 30 | solubility [7]: soluble; Ki [5]: 3.4 µM
N#Cc1ccc(Oc2ccccc2O)c(F)c1 | 11 | – | – | – | – | – | – | – | – | –
Oc1cc(Cl)ccc1Oc1ccc(Cl)cc1Cl [TRICLOSAN] | – | – | 1.3 | – | – | – | 4.2 | – | 5.4 | –
NC(=O)c1ccc(Oc2ccccc2O)c(F)c1 | 6 | – | – | – | – | – | – | – | – | –
O=C(O)c1cn(C2CC2)c2cc(N3CCNCC3)c(F)cc2c1=O [CIPROFLOXACIN] | – | 0.125 µg/mL | – | 1 (≈ 3.02 µM) | 2 (≈ 6.04 µM) | 0.0312 (≈ 0.0943 µM) | – | 0.0312 (≈ 0.0943 µM) | – | –
O=C(C(=O)N1CC=C(c2ccccc2)CC1)c1c[nH]c2ccccc12 | 12 | 39 µM | 3 | > 413 | > 413 | > 413 | 63 | > 208 | 70 | –

Reference: ChEMBL document CHEMBL2396561 (J Med Chem, 2013)
